Results taken from patent US20240251792A1, “WEED CONTROL METHOD” (SYNGENTA CROP PROTECTION AG, priority 2021, published 2024).
Read-outs that look alike come from different tables or passages of the source.

What was measured:
Type in all cases: in vivo
STEME [1] = assay: Biological efficacy, post-emergence glasshouse test (Table 2); conditions: 1000 g/ha, after 12 days
Procedure: (§1) Seeds of a variety of test species were shown in unsterilised compost in small pots. After cultivation for one day (pre-emergence) or seven days (post-emergence) in controlled conditions in the glasshouse (at 24/16° C., day/night; 14 hours light; 65% humidity) the plants were sprayed with 1 mg of the active ingredient, formulated in 466 μl of a acetone/water/Tween 20 (49.75:49.75:0.5) solution, which is equivalent to 1000 g/ha. Once the foliage was dry, the pots were kept in the glasshouse (at 24/16° C., day/night; 14 hours light; 65% humidity), and were watered twice daily. After 12 days the test was evaluated and scored (100=total damage to plant, 0=no damage to plant).

LOLPE [2] = assay: as above; conditions: 1000 g/ha, after 12 days
Procedure: as §1

AMARE [3] = assay: as above; conditions: 1000 g/ha, after 12 days
Procedure: as §1

DIGSA [4] = assay: as above; conditions: 1000 g/ha, after 12 days
Procedure: as §1

STEME [5] = assay: Biological efficacy, pre-emergence glasshouse test (Table 2); conditions: 1000 g/ha, after 12 days
Procedure: as §1

LOLPE [6] = assay: as above; conditions: 1000 g/ha, after 12 days
Procedure: as §1

AMARE [7] = assay: as above; conditions: 1000 g/ha, after 12 days
Procedure: as §1

DIGSA [8] = assay: as above; conditions: 1000 g/ha, after 12 days
Procedure: as §1

ZEAMX = assay: Pre-emergence biological efficacy (Table 3); conditions: 312 h, 1000 g/ha, after 13 days, read-out: evaluation (100=total damage to plant; 0=no damage to plant)
How it was run: (§2)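 Sown pots, 1 d glasshouse (24/19 °C, 16 h light), pre-emergence spray of compound from 50 g/l AMA formulation diluted in 0.2% Genapol X080. Grown at 24/18 °C, 15 h light, 50% humidity, watered twice daily; scored 0–100 damage at 13 d.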

ECHCG = assay: Pre-emergence biological efficacy (Table 3); conditions: Echinochloa crus-galli, 312 h, 1000 g/ha, after 13 days, read-out: evaluation (100=total damage to plant; 0=no damage to plant)
How it was run: as §2

IPOHE = assay: Pre-emergence biological efficacy (Table 3); conditions: Ipomoea hederacea, 312 h, 1000 g/ha, after 13 days, read-out: evaluation (100=total damage to plant; 0=no damage to plant)
How it was run: as §2

STEME [9] = assay: Pre-emergence biological efficacy (Table 3); conditions: 312 h, after 13 days, read-out: evaluation (100=total damage to plant; 0=no damage to plant)
How it was run: as §2

ABUTH = assay: Pre-emergence biological efficacy (Table 3); conditions: Abutilon theophrasti, 312 h, after 13 days, read-out: evaluation (100=total damage to plant; 0=no damage to plant)
How it was run: as §2

AMARE [10] = assay: Pre-emergence biological efficacy (Table 3); conditions: Amaranthus retroflexus, 312 h, 1000 g/ha, after 13 days, read-out: evaluation (100=total damage to plant; 0=no damage to plant)
How it was run: as §2

weeds and/or crops = assay: Post-emergence biological efficacy (Table 4); conditions: 312 h, 1000 g/ha, evaluated after 13 days
How it was run: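 Scores are visual damage (0 = none, 100 = total), read 13 days after treatment at 24/18 °C with 15 h light. Plants had been sown in standard soil and grown 14 days before a spray of compound in F50/acetone, diluted with 0.2% Genapol X080.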

Row | Structure (SMILES) | score (100=total damage to plant, 0=no damage to plant) (STEME [1]) | score (100=total damage to plant, 0=no damage to plant) (LOLPE [2]) | score (100=total damage to plant, 0=no damage to plant) (AMARE [3]) | score (100=total damage to plant, 0=no damage to plant) (DIGSA [4]) | score (100=total damage to plant, 0=no damage to plant) (STEME [5]) | score (100=total damage to plant, 0=no damage to plant) (LOLPE [6]) | score (100=total damage to plant, 0=no damage to plant) (AMARE [7]) | score (100=total damage to plant, 0=no damage to plant) (DIGSA [8]) | plant injury at 1000 g/ha (ZEAMX) | pest or weed control at 1000 g/ha (ECHCG) | pest or weed control at 1000 g/ha (IPOHE) | pest or weed control at 1000 g/ha (STEME [9]) | pest or weed control at 1000 g/ha (ABUTH) | pest or weed control at 1000 g/ha (AMARE [10]) | pest or weed control at 1000 g/ha (weeds and/or crops; STEME, read-out: damage to plant STEME (100=total damage; 0=no damage)) | pest or weed control at 1000 g/ha (weeds and/or crops; ZEAMX, read-out: damage to plant ZEAMX (100=total damage; 0=no damage)) | pest or weed control at 1000 g/ha (weeds and/or crops; Abutilon theophrasti, ABUTH, read-out: damage to plant ABUTH (100=total damage; 0=no damage)) | pest or weed control at 1000 g/ha (weeds and/or crops; Amaranthus retroflexus, AMARE, read-out: damage to plant AMARE (100=total damage; 0=no damage)) | pest or weed control at 1000 g/ha (weeds and/or crops; Echinochloa crus-galli, ECHCG, read-out: damage to plant ECHCG (100=total damage; 0=no damage)) | pest or weed control at 1000 g/ha (weeds and/or crops; Ipomoea hederacea, IPOHE, read-out: damage to plant IPOHE (100=total damage; 0=no damage))
1 | CC(C)(C)c1ccc(C(F)(F)C(=O)O)cc1 [Compound 1-1] | 0 | 0 | 40 | 0 | 20 | 0 | 0 | 0 | – | – | – | – | – | – | – | – | – | – | – | –
2 | COc1ccc(C(F)(F)C(=O)O)cc1 [Compound 1-2] | 50 | 0 | 40 | 0 | 0 | 0 | 0 | 0 | – | – | – | – | – | – | – | – | – | – | – | –
3 | O=C(O)C(F)(F)c1ccc(OC(F)(F)F)cc1 [Compound 1-3] | 30 | 0 | 70 | 0 | 30 | 30 | 50 | 0 | – | – | – | – | – | – | – | – | – | – | – | –
4 | COc1cccc(C(F)(F)C(=O)O)c1 [Compound 1-6] | 20 | 0 | 80 | 0 | 0 | 0 | – | 0 | – | – | – | – | – | – | – | – | – | – | – | –
5 | COc1cc(C(F)(F)C(=O)O)ccc1C [Compound 1-7] | 70 | 0 | 40 | 0 | 30 | 0 | 0 | 0 | – | – | – | – | – | – | – | – | – | – | – | –
6 | Nc1cccc(C(F)(F)C(=O)O)c1 [Compound 1-8, 2-(3-Aminophenyl)-2,2-difluoro-acetic acid] | 10 | 0 | 10 | 0 | 0 | 0 | 0 | 0 | – | – | – | – | – | – | – | – | – | – | – | –
7 | O=C(O)C(F)(F)c1ccc(OC(F)(F)F)c(Br)c1 [Compound 1-20] | 0 | 0 | 70 | 30 | 0 | 0 | 30 | 0 | – | – | – | – | – | – | – | – | – | – | – | –
8 | O=C(O)C(F)(F)c1ccc(OC(F)F)cc1F [Compound 1-32] | 40 | 0 | 30 | 0 | 0 | 0 | 0 | 0 | – | – | – | – | – | – | – | – | – | – | – | –
9 | N#Cc1cccc(C(F)(F)C(=O)O)c1 [Compound 1-186] | 30 | 0 | 60 | 0 | 10 | 0 | 10 | 0 | – | – | – | – | – | – | – | – | – | – | – | –
10 | CCc1ccccc1C(F)(F)C(=O)O [Compound 1-263] | 50 | 0 | 50 | 0 | 0 | 0 | 40 | 0 | – | – | – | – | – | – | – | – | – | – | – | –
11 | CCOC(=O)C(F)(F)c1cccc2ccccc12 [Compound 3-397, Ethyl 2,2-difluoro-2-(1-naphthyl)acetate] | 70 | 0 | 40 | 0 | – | 0 | 0 | 0 | 20% | 0% | 0% | 40% | 50% | 10% | 100% | 0% | 90% | 10% | 0% | 60%
12 | N#Cc1ccccc1C(F)(F)C(=O)[O-].[Li+] [Compound 5-255] | 70 | 0 | 70 | 0 | – | 0 | 20 | 0 | – | – | – | – | – | – | – | – | – | – | – | –
